{"source": "patent US9314522B2", "about": "“Antitumors combinations containing antibodies recognizing specifically CD38 and bortezomib” (Sanofi, priority 2010, dated 2016)", "key": {"[1]": {"assay": "Body weight loss as index of test agent toxicity in NCI-H929 tumor-bearing mice", "type": "in vivo, SCID mice", "settings": "days 34, 37", "from_the_text": "The animals subjected to the experiment, generally mice, are subcutaneously grafted unilaterally or bilaterally with tumor cells or fragment on day 0. The animals bearing tumors are randomized based on their tumor size before being subjected to the various treatments and controls. Chemotherapy begins when tumors have reached a predetermined size after grafting, depending on the type of tumor, and the animals are observed every day. The different animal groups are weighed daily during treatment until the maximum weight loss is reached and subsequent full weight recovery has occurred. The groups are then weighed once or twice a week until the end of the trial.\nBody weights were measured twice per week as a rough index of test agent toxicity. Tumor volume and body weight were determined and recorded by Labcat software.\nToxicity was declared at dosages inducing 20% body weight loss or 10% drug death, […]"}, "[2]": {"tested_on": "NCI-H929 tumor xenografts", "settings": "days 34, 37", "excerpt": "A product is considered to be active if log10 cell kill is greater than or equal to 0.7. A product is considered to be very active if log10 cell kill is greater than or equal to 2.8.\nThe combination will manifest therapeutic synergy when the log10 cell kill is greater than the value of the log10 cell kill of the best constituent administered alone at its maximum tolerated dose or at its highest dose tested.\nThe animals subjected to the experiment, generally mice, are subcutaneously grafted unilaterally or bilaterally with tumor cells or fragment on day 0. The animals bearing tumors are randomized based on their tumor size before being subjected to the various treatments and controls. Chemotherapy begins when tumors have reached a predetermined size after grafting, depending on the type of tumor, and the animals are observed every day. […] The groups are then weighed once or twice a week until the end of the trial.\nThe tumors are measured 1 to 5 times a week, depending on the tumor doubling time, until the tumor reaches approximately 750 mg, or until the animal dies (if this occurs before the tumor reaches 750 mg). The animals are necropsied immediately after euthanasia or death.\nHu38SB19 and Bortezomib treatments were started thirty four days after cell inoculation and doses were calculated based on individual animal body weights determined from the last measurement taken before dosing. Administration of PBS and hu38SB19 antibody was carried out through intraperitoneal (IP) injection and bortezomib by intravenous (IV) injection via the tail vein, using a 1.0 mL syringe fitted with a 27 gauge, ½ inch needle.\nThirty-three days after tumor cell inoculation, sixty-four mice were randomized into 8 groups (n=8) by tumor volume. […] Mice in each group were identified by a puncture in the ear.\nTreatment groups included PBS control (200 μL/mouse/treatment), hu38SB19 antibody (5.0 mg/kg/treatment), bortezomib (1.0, 0.6 and 0.4 mg/kg/treatment) and three combination groups with hu38SB19 (5.0 mg/kg/treatment) and bortezomib (1.0, 0.6 and 0.4 mg/kg/treatment). PBS, hu38SB19 and bortezomib were administered twice per week for one week (days 34 and 37 for a total of 2 treatments). Treatments were started on day 34 post inoculation of tumor cells.\nTumor volumes were measured one to two times weekly in three dimensions using a caliper. The tumor volume was expressed in mm^3 (or mg) using the formula: V=Length×Width×Height×½.\nTumor Free Survivors (TFS): correspond to complete regression below the limit of palpation (63 mg) for the entire duration of the study (>100 days post last treatment)."}, "[3]": {"settings": "Bortezomib IV 0.4 mg/kg/injection (total 0.8)"}, "[4]": {"settings": "Bortezomib IV 0.4 mg/kg/injection (total 0.8), 0.4 mg/kg"}, "[5]": {"settings": "Bortezomib IV 0.4 mg/kg/injection (total 0.8), listed as bortezomib, 0.4 mg/kg"}, "[6]": {"settings": "Bortezomib IV 0.6 mg/kg/injection (total 1.2)"}, "[7]": {"settings": "Bortezomib IV 0.6 mg/kg/injection (total 1.2), 0.6 mg/kg"}, "[8]": {"settings": "Bortezomib IV 0.6 mg/kg/injection (total 1.2), listed as bortezomib, 0.6 mg/kg"}, "[9]": {"settings": "Bortezomib IV 1.0 mg/kg/injection (total 2.0)"}, "[10]": {"settings": "Bortezomib IV 1.0 mg/kg/injection (total 2.0), 1 mg/kg"}, "[11]": {"settings": "Bortezomib IV 1.0 mg/kg/injection (total 2.0), listed as bortezomib, 1 mg/kg"}}, "note": "Like-named read-outs stand apart in the source and are kept apart here.", "data": [{"smiles": "CC(C)C[C@H](NC(=O)[C@H](Cc1ccccc1)NC(=O)c1cnccn1)B(O)O", "note": "[Bortezomib, [(1R)-3-methyl-1-({(2S)-3-phenyl-2-[(pyrazin-2-ylcarbonyl)amino]propanoyl}amino)butyl]boronic acid]", "values": [{"measurement": "Average body weight loss in % per mouse at nadir (day of nadir)", "setting": "[1]; Bortezomib IV 0.4 mg/kg/injection (total 0.8), nadir d36", "result": "0.8 (d36) %"}, {"measurement": "Average body weight loss in % per mouse at nadir (day of nadir)", "setting": "[1]; Bortezomib IV 0.6 mg/kg/injection (total 1.2), nadir d40", "result": "0.6 (d40) %"}, {"measurement": "Average body weight loss in % per mouse at nadir (day of nadir)", "setting": "[1]; Bortezomib IV 1.0 mg/kg/injection (total 2.0), nadir d36", "result": "7.0 (d36) %"}, {"measurement": "T-C in days (tumor growth delay)", "setting": "[2]; [3]", "result": 7, "unit": "days"}, {"measurement": "Time for median tumor to reach 750 mg", "setting": "[2]; [3]", "result": 69, "unit": "days"}, {"measurement": "log cell kill", "setting": "[2]; [3]", "result": 0.1}, {"measurement": "% T/C", "setting": "[2]; [4]", "result": 74, "unit": "%"}, {"measurement": "Comments (anti-tumor activity rating)", "setting": "[2]; [4]", "result": "Inactive"}, {"measurement": "TFS at day 176 (tumor free survivors)", "setting": "[2]; [4]", "result": "1/8"}, {"measurement": "% T/C", "setting": "[2]; [5]", "result": 45, "unit": "%"}, {"measurement": "Comments (anti-tumor activity rating)", "setting": "[2]; [5]", "result": "inactive"}, {"measurement": "TFS at day 176 (tumor free survivors)", "setting": "[2]; [5]", "result": "single TFS"}, {"measurement": "T-C in days (tumor growth delay)", "setting": "[2]; [6]", "result": 18, "unit": "days"}, {"measurement": "Time for median tumor to reach 750 mg", "setting": "[2]; [6]", "result": 80, "unit": "days"}, {"measurement": "log cell kill", "setting": "[2]; [6]", "result": 0.3}, {"measurement": "% T/C", "setting": "[2]; [7]", "result": 45, "unit": "%"}, {"measurement": "Comments (anti-tumor activity rating)", "setting": "[2]; [7]", "result": "Inactive"}, {"measurement": "TFS at day 176 (tumor free survivors)", "setting": "[2]; [7]", "result": "0/8"}, {"measurement": "% T/C", "setting": "[2]; [8]", "result": 75, "unit": "%"}, {"measurement": "Comments (anti-tumor activity rating)", "setting": "[2]; [8]", "result": "inactive"}, {"measurement": "TFS at day 176 (tumor free survivors)", "setting": "[2]; [8]", "result": "No TFS"}, {"measurement": "% T/C", "setting": "[2]; [9]", "result": 15, "unit": "%"}, {"measurement": "T-C in days (tumor growth delay)", "setting": "[2]; [9]", "result": 37, "unit": "days"}, {"measurement": "Time for median tumor to reach 750 mg", "setting": "[2]; [9]", "result": 99, "unit": "days"}, {"measurement": "log cell kill", "setting": "[2]; [9]", "result": 0.6}, {"measurement": "Comments (anti-tumor activity rating)", "setting": "[2]; [10]", "result": "Active"}, {"measurement": "TFS at day 176 (tumor free survivors)", "setting": "[2]; [10]", "result": "2/8"}, {"measurement": "Comments (anti-tumor activity rating)", "setting": "[2]; [11]", "result": "somewhat active"}, {"measurement": "TFS at day 176 (tumor free survivors)", "setting": "[2]; [11]", "result": 2}]}]}
